Measurements reported in patent US7105572B2, “Stable emulsion compositions” (Takeda Pharmaceutical Company Limited, priority 2000, dated 2006).

Columns and labels:
[1] = test system: nitric oxide concentration (NOx) in blood; experiment: Effect on increase of nitric oxide concentration (NOx) in blood of LPS-treated mice; format: in vivo, BALB/c mice; details: 30 mg/kg orally, 1 hour before LPS 10 mg/kg i.p.; serum 6 hours after LPS; vs control group
[2] = test system: NO production by RAW264.7 cell; experiment: NO production-inhibiting effect in RAW264.7 cells stimulated with LPS and interferon-gamma; format: cell-based, mouse; details: LPS 5 ng/ml + interferon-gamma 1 U/ml, nitrite ion in culture supernatant, compounds 1 and 3: minimum and maximum of 7 and 9 tests
Description: Mouse macrophage cell line RAW264.7 was used as an iNOS-inducible cell and a test compound was examined for its % inhibition of NO production. The test compound was dissolved at the concentration of 10 mM in N,N-dimethylformamide and diluted with an RPMI-1640 medium at the concentration of 0.1 mM. The concentration was further adjusted using the medium, so that a final concentration ranging from 10 μM to 10 nM could be obtained by a 10-fold serial dilution, and the test compound was added to a culture medium. […] at 5×10^5/ml with 10% inactivated fetal calf serum in an RPMI-1640 medium and inoculated to a 96-well plate at 1×10^5 cells/0.2 ml per well. After incubating at 37° C. under an atmosphere of 5% CO2/95% air overnight, the test compound adjusted as described above was added and then LPS and interferon-gamma were added at the final concentrations of 5 ng/ml and 1 U/ml, respectively. […] The nitrite ion concentration was determined by adding 25 μl of 20 μg/ml of 2,3-diaminonaphthalene (DAN) to 50 μl of the culture supernatant, followed by incubating at room temperature for 10 minutes, followed by adding 25 μl of 0.5 N NaOH, followed by determining a fluorescence at 450 nm (excitation wavelength: 365 nm). […]

[3] = test system: IL-1α; experiment: Effect on increase of cytokine concentration in blood of LPS-treated mice: IL-1α; format: in vivo, BALB/c mice; details: 30 mg/kg orally, 1 hour before LPS 10 mg/kg i.p.; serum 6 hours after LPS
Description: (§1) As a result of a defense mechanism against an infection and the like or an immune abnormality, various cytokines are produced in vivo. Accordingly, an experimental animal was used to examine the effect of a test compound on the increase cytokine concentration in blood.
(§2) Female BALB/c mice (6 weeks old) were purchased and acclimatized for 1 week and assigned to the groups in each of which 6 to 8 animals were included. In a treatment group, 30 mg/kg of a test compound suspended in a 0.5% aqueous methyl cellulose solution was given orally. In a control group, the vehicle was given similarly. After 1 hour, LPS (10 mg/kg) was given intraperitoneally to each animal in the treatment and control groups, and the blood was taken 1 hour after the LPS administration and examined for concentrations of TNF-α in the serum. IL-1α, IL-1β and IL-6 concentrations were determined using the serum from the blood taken 6 hours after the LPS administration. Each cytokine was determined using an assay kit manufactured by Amersham.

[4] = test system: IL-1β; experiment: Effect on increase of cytokine concentration in blood of LPS-treated mice: IL-1β; format: in vivo, BALB/c mice; details: 30 mg/kg orally, 1 hour before LPS 10 mg/kg i.p.; serum 6 hours after LPS
Description: as §1, §2

[5] = test system: TNF-α; experiment: Effect on increase of cytokine concentration in blood of LPS-treated mice: TNF-α; format: in vivo, BALB/c mice; details: 30 mg/kg orally, 1 hour before LPS 10 mg/kg i.p.; serum 1 hour after LPS
Description: as §1, §2

[6] = test system: IL-6; experiment: Effect on increase of cytokine concentration in blood of LPS-treated mice: IL-6; format: in vivo, BALB/c mice; details: 30 mg/kg orally, 1 hour before LPS 10 mg/kg i.p.; serum 6 hours after LPS
Description: as §1, §2

## CCOC(=O)C1=CCCCC1S(=O)(=O)Nc1ccc(F)cc1F (centres unmarked) [Compound 3, ethyl 6-[N-(2,4-difluorophenyl)sulfamoyl]-1-cyclohexene-1-carboxylate]
[1]
  NOx inhibition (%) in blood: 90%

## CCOC(=O)C1=CCCCC1S(=O)(=O)Nc1ccc(F)cc1F (stereo not drawn) [Compound 20, d-ethyl 6-[N-(2,4-difluorophenyl)sulfamoyl]-1-cyclohexene-1-carboxylate]
[2]
  IC50: 0.005 µM

## CCOC(=O)C1=CCCCC1S(=O)(=O)Nc1ccc(Cl)cc1F (centres unmarked) [Compound 1, ethyl 6-[N-(4-chloro-2-fluorophenyl)sulfamoyl]-1-cyclohexene-1-carboxylate]
[1]
  NOx inhibition (%) in blood: 76%
[3]
  cytokine inhibition (%) in blood IL-1α: 97%
[4]
  cytokine inhibition (%) in blood IL-1β: 73%
[5]
  cytokine inhibition (%) in blood TNF-α: 98%
[6]
  cytokine inhibition (%) in blood IL-6: 89%

## CCOC(=O)C1=CCCCC1S(=O)(=O)Nc1cccc(F)c1 (centres unmarked) [Compound 11, ethyl 6-[N-(3-fluorophenyl)sulfamoyl]-1-cyclohexene-1-carboxylate]
[2]; Mus musculus
  IC50: 0.31 µM
